Data taken from patent US9346809B2 (LEO PHARMA A/S, priority 2009, dated 2016).
Where two headings read alike, the source gives them in different places.

Key:
Assay type in all cases: biochemical
[1] = biological target: T1, TYK2 (aa 871-1187, catalytic domain, GST-tag) (Homo sapiens, UniProt P29597); test: JAK kinase assay (HTRF, phosphorylation of TK substrate-biotin), TYK2; details: ATP at Km (13 μM), read-out: TYK2 kinase inhibitory activity (EC50 indicator)
T1 construct: JAK1 (aa 850-1154) and TYK2 (aa 871-1187) are expressed with an N-terminally fused GST-tag; GST (N); purchased Carna Biosciences, Inc; host or cells: baculovirus expression system
T1 sequence (P29597 871-1187): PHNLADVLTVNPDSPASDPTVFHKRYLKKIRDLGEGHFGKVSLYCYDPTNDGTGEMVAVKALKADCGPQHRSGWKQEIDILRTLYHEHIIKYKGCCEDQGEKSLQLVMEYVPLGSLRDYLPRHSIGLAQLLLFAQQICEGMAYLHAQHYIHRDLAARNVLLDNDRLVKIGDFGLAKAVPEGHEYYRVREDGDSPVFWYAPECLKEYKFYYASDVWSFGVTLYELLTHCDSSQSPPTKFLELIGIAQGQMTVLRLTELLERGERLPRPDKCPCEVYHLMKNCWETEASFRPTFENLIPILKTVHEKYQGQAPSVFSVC
In short: (§1)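 EC50 values come from HTRF detection of phospho-biotin-TK peptide (1 μM) after 20-30 min RT reactions in Hepes pH 7.0 buffer with 0.75% DMSO. ATP was at Km for each enzyme: 7 μM JAK1, 4 μM JAK2, 2 μM JAK3, 13 μM TYK2. SEB (50 nM) was added for JAK1 and TYK2 only.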

[2] = biological target: T2, JAK1 (aa 850-1154, catalytic domain, GST-tag) (Homo sapiens, UniProt P23458); test: JAK kinase assay (HTRF, phosphorylation of TK substrate-biotin), JAK1; details: ATP at Km (7 μM), read-out: JAK1 kinase inhibitory activity (EC50 indicator)
T2 construct: JAK1 (aa 850-1154) and TYK2 (aa 871-1187) are expressed with an N-terminally fused GST-tag; GST (N); purchased Carna Biosciences, Inc; host or cells: baculovirus expression system
T2 sequence (P23458 850-1154): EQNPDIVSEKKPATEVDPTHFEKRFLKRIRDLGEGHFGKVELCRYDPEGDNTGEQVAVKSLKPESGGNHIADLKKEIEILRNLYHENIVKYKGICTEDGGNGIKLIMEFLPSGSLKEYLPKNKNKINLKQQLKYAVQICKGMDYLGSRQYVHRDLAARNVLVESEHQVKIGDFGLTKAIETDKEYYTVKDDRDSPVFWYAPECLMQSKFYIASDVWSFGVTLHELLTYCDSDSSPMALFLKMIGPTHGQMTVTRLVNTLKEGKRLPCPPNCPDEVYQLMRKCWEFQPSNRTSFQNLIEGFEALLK
In short: as §1

[3] = biological target: T3, JAK2 (catalytic domain, His-tag) (Homo sapiens, UniProt O60674); test: JAK kinase assay (HTRF, phosphorylation of TK substrate-biotin), JAK2; details: ATP at Km (4 μM), read-out: JAK2 kinase inhibitory activity (EC50 indicator)
T3 construct: All four purified enzymes contain only the catalytic domain; His (N); purchased Carna Biosciences, Inc; host or cells: baculovirus expression system
T3 sequence (O60674 849-1124 limits assumed): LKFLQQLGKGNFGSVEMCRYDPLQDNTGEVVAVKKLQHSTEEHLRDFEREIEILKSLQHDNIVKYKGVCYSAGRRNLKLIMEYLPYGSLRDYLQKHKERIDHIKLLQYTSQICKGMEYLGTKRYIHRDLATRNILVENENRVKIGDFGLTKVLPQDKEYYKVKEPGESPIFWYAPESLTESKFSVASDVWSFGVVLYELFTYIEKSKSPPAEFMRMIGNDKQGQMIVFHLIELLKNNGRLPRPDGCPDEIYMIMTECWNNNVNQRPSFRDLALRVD
In short: as §1

[4] = biological target: T4, JAK3 (catalytic domain, His-tag) (Homo sapiens, UniProt P52333); test: JAK kinase assay (HTRF, phosphorylation of TK substrate-biotin), JAK3; details: ATP at Km (2 μM), read-out: JAK3 kinase inhibitory activity (EC50 indicator)
T4 construct: All four purified enzymes contain only the catalytic domain; His (N); purchased Carna Biosciences, Inc; host or cells: baculovirus expression system
T4 sequence (P52333 822-1111 limits assumed): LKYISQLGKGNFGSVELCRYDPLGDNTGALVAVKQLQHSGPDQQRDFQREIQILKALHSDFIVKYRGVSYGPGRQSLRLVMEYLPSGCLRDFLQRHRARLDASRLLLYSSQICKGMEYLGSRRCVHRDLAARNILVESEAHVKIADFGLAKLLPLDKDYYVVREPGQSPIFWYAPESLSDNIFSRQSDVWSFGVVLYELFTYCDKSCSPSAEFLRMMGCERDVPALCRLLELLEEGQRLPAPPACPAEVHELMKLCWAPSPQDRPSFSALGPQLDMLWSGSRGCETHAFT
In short: as §1

EC50 [1] [µM]	EC50 [2] [µM]	EC50 [3] [µM]	EC50 [4] [µM]	EC50 ([1]; HTRF assay) [µM]	EC50 ([2]; HTRF assay) [µM]	EC50 ([3]; HTRF assay) [µM]	EC50 ([4]; HTRF assay) [µM]	SMILES
> 0.5	0.1 to 0.5	0.1 to 0.5	0.1 to 0.5					N#CCOc1cccc(CC(=O)N2CCN(c3ncnc4[nH]ccc34)CC23CC3)c1 [Example 70, (3-{2-Oxo-2-[7-(7H-pyrrolo[2,3-d]pyrimidin-4-yl)-4,7-diaza-spiro[2.5]oct-4-yl]-ethyl}-phenoxy)-acetonitrile]
> 0.5	0.1 to 0.5	< 0.1	0.1 to 0.5					N#Cc1ccccc1CC(=O)N1CCN(c2ncnc3[nH]ccc23)CC12CC2 [Example 113, 2-{2-Oxo-2-[7-(7H-pyrrolo[2,3-d]pyrimidin-4-yl)-4,7-diaza-spiro[2.5]oct-4-yl]-ethyl}-benzonitrile]
< 0.1	< 0.1	< 0.1	< 0.1					CS(=O)(=O)c1ccc(C(=O)N2CCN(c3ncnc4[nH]ccc34)CC23CC3)c(F)c1 [Example 183, (2-Fluoro-4-methanesulfonyl-phenyl)-[7-(7H-pyrrolo[2,3-d]pyrimidin-4-yl)-4,7-diaza-spiro[2.5]oct-4-yl]-methanone]
> 0.5	> 0.5	0.1 to 0.5	> 0.5					O=C1c2ccccc2CC1C(=O)N1C2CCC1CN(c1ncnc3[nH]ccc13)C2 (centres unmarked) [Example 133, 2-[3-(7H-Pyrrolo[2,3-d]pyrimidin-4-yl)-3,8-diaza-bicyclo[3.2.1]octane-8-carbonyl]-indan-1-one]
0.1 to 0.5	< 0.1	< 0.1	0.1 to 0.5					CC1CN(C(=O)C2(C#N)CC2)C2(CC2)CN1c1ncnc2[nH]ccc12 (centres unmarked) [Example 149, 1-[6-Methyl-7-(7H-pyrrolo[2,3-d]pyrimidin-4-yl)-4,7-diaza-spiro[2.5]octane-4-carbonyl]-cyclopropanecarbonitrile]
0.1 to 0.5	< 0.1	< 0.1	< 0.1					N#Cc1csc(C(=O)N2C3CCC2CN(c2ncnc4[nH]ccc24)C3)c1 [Example 199, 5-[3-(7H-Pyrrolo[2,3-d]pyrimidin-4-yl)-3,8-diaza-bicyclo[3.2.1]octane-8-carbonyl]-thiophene-3-carbonitrile]
				0.1 to 0.5	< 0.1	< 0.1	0.1 to 0.5	O=C(c1ccc(S(=O)(=O)CCO)cc1)N1CCN(c2ncnc3[nH]ccc23)CC12CC2 [Example 406, [4-(2-Hydroxy-ethanesulfonyl)-phenyl]-[7-(7H-pyrrolo[2,3-d]pyrimidin-4-yl)-4,7-diaza-spiro[2.5]oct-4-yl]-methanone]
				0.1 to 0.5	< 0.1	< 0.1	< 0.1	O=C(c1cccc2cc(O)ccc12)N1[C@@H]2CC[C@@H]1CN(c1ncnc3[nH]ccc13)C2 [Example 359, (6-Hydroxy-naphthalen-1-yl)-[3-(7H-pyrrolo[2,3-d]pyrimidin-4-yl)-3,8-diaza-bicyclo[3.2.1]oct-8-yl]-methanone]
0.1 to 0.5	< 0.1	< 0.1	0.1 to 0.5					O=C(c1cccc(OC(F)(F)F)c1)N1CCN(c2ncnc3[nH]ccc23)CC12CC2 [Example 160, [7-(7H-Pyrrolo[2,3-d]pyrimidin-4-yl)-4,7-diaza-spiro[2.5]oct-4-yl]-(3-trifluoromethoxy-phenyl)-methanone]
> 0.5	< 0.1	0.1 to 0.5	0.1 to 0.5					Cc1c(C(=O)N2C3CCC2CN(c2ncnc4[nH]ccc24)C3)[nH]c2ccc(F)cc12 [Example 201, (5-Fluoro-3-methyl-1H-indol-2-yl)-[3-(7H-pyrrolo[2,3-d]pyrimidin-4-yl)-3,8-diaza-bicyclo[3.2.1]oct-8-yl]-methanone]
				< 0.1	< 0.1	< 0.1	< 0.1	CS(=O)(=O)c1ccc2[nH]c(C(=O)N3CCN(c4ncnc5[nH]ccc45)CC34CC4)cc2c1 [Example 365, (5-Methanesulfonyl-1H-indol-2-yl)-[7-(7H-pyrrolo[2,3-d]pyrimidin-4-yl)-4,7-diaza-spiro[2.5]oct-4-yl]-methanone]
				> 0.5	> 0.5	0.1 to 0.5	0.1 to 0.5	COc1cnc2[nH]ccc2c1N1CCN(C(=O)c2cccc(C#N)c2)C2(CC2)C1 [Example 287, 3-[7-(5-Methoxy-1H-pyrrolo[2,3-b]pyridin-4-yl)-4,7-diaza-spiro[2.5]octane-4-carbonyl]-benzonitrile]
> 0.5	< 0.1	< 0.1	0.1 to 0.5					O=C(C1Cc2ccccc21)N1CCN(c2ncnc3[nH]ccc23)CC12CC2 (centres unmarked) [Example 125, Bicyclo[4.2.0]octa-1(6),2,4-trien-7-yl-[7-(7H-pyrrolo[2,3-d]pyrimidin-4-yl)-4,7-diaza-spiro[2.5]oct-4-yl]-methanone]
				0.1 to 0.5	< 0.1	< 0.1	0.1 to 0.5	NS(=O)(=O)c1ccc(-c2ccc(C(=O)N3CCN(c4ncnc5[nH]ccc45)CC34CC4)o2)cc1 [Example 400, 4-{5-[7-(7H-Pyrrolo[2,3-d]pyrimidin-4-yl)-4,7-diaza-spiro[2.5]octane-4-carbonyl]-furan-2-yl}-benzenesulfonamide]
				> 0.5	> 0.5	> 0.5	> 0.5	Cc1c[nH]c2ncnc(N3CCN(C(=O)CCC#N)C4(CC4)C3)c12 [Example 335, 4-[7-(5-Methyl-7H-pyrrolo[2,3-d]pyrimidin-4-yl)-4,7-diaza-spiro[2.5]oct-4-yl]-4-oxo-butyronitrile]
				> 0.5	> 0.5	0.1 to 0.5	> 0.5	O=C(c1cnc2ccccc2n1)N1CCN(c2ncnc3[nH]cc(Cl)c23)CC12CC2 [Example 317, [7-(5-Chloro-7H-pyrrolo[2,3-d]pyrimidin-4-yl)-4,7-diaza-spiro[2.5]oct-4-yl]-quinoxalin-2-yl-methanone]
				> 0.5	> 0.5	> 0.5	0.1 to 0.5	COc1cnc2[nH]ccc2c1N1CCN(C(=O)c2cc3cc(C#N)ccc3[nH]2)C2(CC2)C1 [Example 291, 2-[7-(5-Methoxy-1H-pyrrolo[2,3-b]pyridin-4-yl)-4,7-diaza-spiro[2.5]octane-4-carbonyl]-1H-indole-5-carbonitrile]
				> 0.5	< 0.1	< 0.1	> 0.5	N#CCCCS(=O)(=O)c1ccc(C(=O)N2CCN(c3ncnc4[nH]ccc34)CC23CC3)cc1 [Example 408, 4-{4-[7-(7H-Pyrrolo[2,3-d]pyrimidin-4-yl)-4,7-diaza-spiro[2.5]octane-4-carbonyl]-benzenesulfonyl}-butyronitrile]
				> 0.5	< 0.1	< 0.1	0.1 to 0.5	O=C(c1cnc2ccccc2n1)N1[C@@H]2CC[C@H]1CN(c1ncnc3[nH]ccc13)C2 [Example 345, [3-(7H-Pyrrolo[2,3-d]pyrimidin-4-yl)-3,8-diaza-bicyclo[3.2.1]oct-8-yl]-quinoxalin-2-yl-methanone]
< 0.1	< 0.1	< 0.1	< 0.1					O=C(c1cnc2ccccc2n1)N1CCN(c2ncnc3[nH]ccc23)CC12CC2 [Example 161, [7-(7H-Pyrrolo[2,3-d]pyrimidin-4-yl)-4,7-diaza-spiro[2.5]oct-4-yl]-quinoxalin-2-yl-methanone]
				> 0.5	> 0.5	> 0.5	> 0.5	N#Cc1cccc(CC(=O)N2CCN(c3ccnc4[nH]ccc34)CC23CC3)c1 [Example 236, 3-{2-Oxo-2-[7-(1H-pyrrolo[2,3-b]pyridin-4-yl)-4,7-diaza-spiro[2.5]oct-4-yl]-ethyl}-benzonitrile]
				> 0.5	> 0.5	> 0.5	> 0.5	COC(=O)c1cc2c(N3CCN(C(=O)Cc4ccc(F)cc4)C4(CC4)C3)ncnc2[nH]1 [Example 337, 4-{4-[2-(4-Fluoro-phenyl)-acetyl]-4,7-diaza-spiro[2.5]oct-7-yl}-7H-pyrrolo[2,3-d]pyrimidine-6-carboxylic acid methyl ester]
> 0.5	> 0.5	> 0.5	> 0.5					Cc1c[nH]c2ncnc(N3CCN(C(=O)c4cnc5ccccc5n4)C4(CC4)C3)c12 [Example 120, [7-(5-Methyl-7H-pyrrolo[2,3-d]pyrimidin-4-yl)-4,7-diaza-spiro[2.5]oct-4-yl]-quinoxalin-2-yl-methanone]
